Reference: patent US10570129B2 (Zoetis Services LLC, priority 2015, dated 2020)

How the values were obtained:
[1] = test system: Haemonchus contortus L3; assay: microbe, parasite or virus in culture; assay type: cell-based; conditions: for minimal effective concentration: Haemonchus contortus, 96 h, read-out: HcL3 Minimal Effective Concentration (MEC)
[2] = test system: D. immitis microfilariae; assay: Dirofilaria immitis, microfilariae (DiMF) in vitro motility assay; assay type: cell-based; conditions: for minimal effective concentration: Dirofilaria immitis, 72 h, read-out: DiMF minimally effective dose (MEC)

Molecule | minimal effective concentration [1] | minimal effective concentration [2] | HcL3 Minimal Effective Concentration (MEC) [1] | DiMF minimally effective dose (MEC) ([2]; decrease in microfilariae motility by subjective visual assessment, observed at 72 hours)
O=C(NCc1ccnc(Cl)c1)n1c2c(c3cc(Br)c(F)cc31)CN(C/C=C/c1ccc(Cl)cc1)CC2 [Example 197, (E)-8-bromo-2-(3-(4-chlorophenyl)allyl)-N-((2-chloropyridin-4-yl)methyl)-7-fluoro-1,2,3,4-tetrahydro-5H-pyrido[4,3-b]indole-5-carboxamide] | 0.4 µM | 4.4 µM | – | –
N#Cc1cc2c(cc1OC(F)(F)F)c1c(n2C(=O)NCc2ccnc(Cl)c2)CCN(C/C=C/c2ccc(Cl)cc2)C1 [Example 502, (E)-2-(3-(4-chlorophenyl)allyl)-N-((2-chloropyridin-4-yl)methyl)-7-cyano-8-(trifluoromethoxy)-1,2,3,4-tetrahydro-5H-pyrido[4,3-b]indole-5-carboxamide] | 18.2 µM | > 100 µM | – | –
O=C(NCc1ccnc(Cl)c1)n1c2c(c3cc(Cl)ccc31)CN(C/C=C/c1ccc(C(F)(F)F)cc1)CC2 [Example 246, (E)-8-chloro-N-((2-chloropyridin-4-yl)methyl)-2-(3-(4-(trifluoromethyl)-phenyl)allyl)-1,2,3,4-tetrahydro-5H-pyrido[4,3-b]indole-5-carboxamide] | 3.3 µM | 10 µM | – | –
(E)-9-chloro-2-(3-(4-chlorophenyl)allyl)-N-((2-chloropyridin-4-yl)methyl)-8-fluoro-1,2,3,4-tetrahydro-5H-pyrido[4,3-b]indole-5-carboxamide [Example 318] | – | – | 3.3 µM | 5.7 µM
O=C(NCc1ccnc(Cl)c1)n1c2c(c3ccc(OC(F)(F)F)cc31)CN(C/C=C/c1ccc(Cl)cc1F)CC2 [Example 340, (E)-2-(3-(4-chloro-2-fluorophenyl)allyl)-N-((2-chloropyridin-4-yl)methyl)-7-(trifluoromethoxy)-1,2,3,4-tetrahydro-5H-pyrido[4,3-b]indole-5-carboxamide] | 0.3 µM | 5.7 µM | – | –
O=C(NCc1ccnc(F)c1)n1c2c(c3c(Cl)c(Cl)ccc31)CN(C/C=C/c1ccc(Cl)cc1)CC2 [Example 293, (E)-8,9-dichloro-2-(3-(4-chlorophenyl)allyl)-N-((2-fluoropyridin-4-yl)methyl)-1,2,3,4-tetrahydro-5H-pyrido[4,3-b]indole-5-carboxamide] | 3.3 µM | 5.7 µM | – | –
O=C(NCc1ccnc(Cl)c1)n1c2c(c3cc(Cl)ccc31)CN(C/C=C/c1ccc(Cl)cc1)CC2 [Example 242, (E)-8-chloro-2-(3-(4-chlorophenyl)allyl)-N-((2-chloropyridin-4-yl)methyl)-1,2,3,4-tetrahydro-5H-pyrido[4,3-b]indole-5-carboxamide] | 0.7 µM | 10 µM | – | –
O=C(NCc1ccnc(F)c1)n1c2c(c3cc(Cl)ccc31)CN(C/C=C/c1ccc(F)c(F)c1)CC2 [Example 259, (E)-8-chloro-2-(3-(3,4-difluorophenyl)allyl)-N-((2-fluoropyridin-4-yl)methyl)-1,2,3,4-tetrahydro-5H-pyrido[4,3-b]indole-5-carboxamide] | 0.1 µM | 3.3 µM | – | –
N#Cc1ccc(/C=C/CN2CCc3c(c4cc(Cl)ccc4n3C(=O)NCc3ccnc(Cl)c3)C2)cc1F [Example 235, (E)-8-chloro-N-((2-chloropyridin-4-yl)methyl)-2-(3-(4-cyano-3-fluorophenyl)allyl)-1,2,3,4-tetrahydro-5H-pyrido[4,3-b]indole-5-carboxamide] | 0.1 µM | > 100 µM | – | –
O=C(NCc1ccnc(Cl)c1)n1c2c(c3cc(Cl)c(Cl)cc31)CN(C/C=C/c1ccc(F)c(Cl)c1)CC2 [Example 277, (E)-7,8-dichloro-2-(3-(3-chloro-4-fluorophenyl)allyl)-N-((2-chloropyridin-4-yl)methyl)-1,2,3,4-tetrahydro-5H-pyrido[4,3-b]indole-5-carboxamide] | 1 µM | > 100 µM | – | –
O=C(NCc1ccnc(Cl)c1)n1c2c(c3cc(OC(F)(F)F)ccc31)CN(C/C=C/c1ccc(OC(F)(F)F)cc1)CC2 [Example 395, (E)-N-((2-chloropyridin-4-yl)methyl)-8-(trifluoromethoxy)-2-(3-(4-(trifluoro-methoxy)phenyl)allyl)-1,2,3,4-tetrahydro-5H-pyrido[4,3-b]indole-5-carboxamide] | 3.3 µM | 22.2 µM | – | –
O=C(NCc1ccnc(Cl)c1)n1c2c(c3ccc(OC(F)(F)F)cc31)CN(C/C=C/c1ccc(F)cc1Cl)CC2 [Example 346, (E)-2-(3-(2-chloro-4-fluorophenyl)allyl)-N-((2-chloropyridin-4-yl)methyl)-7-(trifluoromethoxy)-1,2,3,4-tetrahydro-5H-pyrido[4,3-b]indole-5-carboxamide] | 0.5 µM | 1.8 µM | – | –
O=C(NCc1ccnc(F)c1)n1c2c(c3cc(Cl)ccc31)CN(C/C=C/c1ccc(F)cc1F)CC2 [Example 257, (E)-8-chloro-2-(3-(2,4-difluorophenyl)allyl)-N-((2-fluoropyridin-4-yl)methyl)-1,2,3,4-tetrahydro-5H-pyrido[4,3-b]indole-5-carboxamide] | 0.2 µM | 5.7 µM | – | –
COc1ccc(/C=C/CN2CCc3c(c4cc(OC(F)(F)F)ccc4n3C(=O)NCc3ccnc(Cl)c3)C2)cc1 [Example 394, (E)-N-((2-chloropyridin-4-yl)methyl)-2-(3-(4-methoxyphenyl)allyl)-8-(trifluoromethoxy)-1,2,3,4-tetrahydro-5H-pyrido[4,3-b]indole-5-carboxamide] | 1 µM | 6.9 µM | – | –
O=C(NCc1ccnc(Cl)c1)n1c2c(c3ccc(Cl)cc31)CN(C/C=C/c1ccc(OC(F)(F)F)cc1)CC2 [Example 221, (E)-7-chloro-N-((2-chloropyridin-4-yl)methyl)-2-(3-(4-(trifluoromethoxy)-phenyl)allyl)-1,2,3,4-tetrahydro-5H-pyrido[4,3-b]indole-5-carboxamide] | > 100 µM | 3.3 µM | – | –
N#Cc1ccc2c(c1)c1c(n2C(=O)NCc2ccnc(Cl)c2)CCN(C/C=C/c2c(F)cc(Cl)cc2F)C1 [Example 74, (E)-2-(3-(4-chloro-2,6-difluorophenyl)allyl)-N-((2-chloropyridin-4-yl)methyl)-8-cyano-1,2,3,4-tetrahydro-5H-pyrido[4,3-b]indole-5-carboxamide] | 0.2 µM | > 100 µM | – | –
N#Cc1ccc2c(c1)c1c(n2C(=O)NCc2ccnc(Cl)c2)CCN(C/C=C/c2c(F)c(F)c(F)c(F)c2F)C1 [Example 83, (E)-N-((2-chloropyridin-4-yl)methyl)-8-cyano-2-(3-(perfluorophenyl)allyl)-1,2,3,4-tetrahydro-5H-pyrido[4,3-b]indole-5-carboxamide] | 0.1 µM | > 100 µM | – | –
O=C(NCc1ccnc(Cl)c1)n1c2c(c3c(C(F)(F)F)cccc31)CN(C/C=C/c1ccc(Cl)c(Cl)c1)CC2 [Example 159, (E)-N-((2-chloropyridin-4-yl)methyl)-2-(3-(3,4-dichlorophenyl)allyl)-9-(trifluoromethyl)-1,2,3,4-tetrahydro-5H-pyrido[4,3-b]indole-5-carboxamide] | 18.2 µM | 10 µM | – | –
O=C(NCc1ccnc(Cl)c1)n1c2c(c3c4c(ccc31)COC4)CN(C/C=C/c1ccc(Cl)cc1)CC2 [Example 490, (E)-9-(3-(4-chlorophenyl)allyl)-N-((2-chloropyridin-4-yl)methyl)-1,3,7,8,9,10-hexahydro-6H-furo[3,4-e]pyrido[4,3-b]indole-6-carboxamide] | 0.2 µM | 10 µM | – | –
N#Cc1ccc2c(c1)c1c(n2C(=O)NCc2ccnc(Cl)c2)CCN(C/C=C/c2ccc(Br)c(F)c2)C1 [Example 85, (E)-2-(3-(4-bromo-3-fluorophenyl)allyl)-N-((2-chloropyridin-4-yl)methyl)-8-cyano-1,2,3,4-tetrahydro-5H-pyrido[4,3-b]indole-5-carboxamide] | 0.1 µM | > 100 µM | – | –
O=C(NCc1ccnc(Cl)c1)n1c2c(c3cc(OC(F)(F)F)ccc31)CN(C/C=C/c1ccc(C(F)(F)F)cn1)CC2 [Example 385, (E)-N-((2-chloropyridin-4-yl)methyl)-8-(trifluoromethoxy)-2-(3-(5-(trifluoromethyl)pyridin-2-yl)allyl)-1,2,3,4-tetrahydro-5H-pyrido[4,3-b]indole-5-carboxamide] | 0.5 µM | 47.8 µM | – | –
O=C(NCc1ccnc(Cl)c1)n1c2c(c3cc(-n4ccccc4=O)ccc31)CN(C/C=C/c1ccc(Cl)cc1)CC2 [Example 500, (E)-2-(3-(4-chlorophenyl)allyl)-N-((2-chloropyridin-4-yl)methyl)-8-(2-oxopyridin-1 (2H)-yl)-1,2,3,4-tetrahydro-5H-pyrido[4,3-b]indole-5-carboxamide] | > 100 µM | 5.7 µM | – | –
O=C(NCc1ccnc(Cl)c1)n1c2c(c3ccc(OC(F)(F)F)cc31)CN(C/C=C/c1c(F)cc(F)cc1F)CC2 [Example 341, (E)-N-((2-chloropyridin-4-yl)methyl)-7-(trifluoromethoxy)-2-(3-(2,4,6-trifluorophenyl)allyl)-1,2,3,4-tetrahydro-5H-pyrido[4,3-b]indole-5-carboxamide] | 3.3 µM | 5.7 µM | – | –
O=C(NCc1ccnc(Cl)c1)n1c2c(c3ccc(Cl)cc31)CN(C/C=C/c1ccc(C(F)(F)F)cc1)CC2 [Example 223, (E)-7-chloro-N-((2-chloropyridin-4-yl)methyl)-2-(3-(4-(trifluoromethyl)-phenyl)allyl)-1,2,3,4-tetrahydro-5H-pyrido[4,3-b]indole-5-carboxamide] | 10 µM | 3.3 µM | – | –
